Measured values reported in ChEMBL document CHEMBL4190265, “Structural optimization elaborates novel potent Akt inhibitors with promising anticancer activity” (Eur J Med Chem, 2017).
pIC50: −log10 of the molar value.

Columns and labels:
[1] = test system: JeKo-1; assay: Induction of apoptosis in human JeKo1 cells assessed as viable cells at 1 uM after 72 hrs by Annexin V-FITC/propidium iodide double staining based flow cytometry (reference value: 91.9%); assay type: functional; settings: JeKo-1, 72 h, read-out: Activity
[2] = target: RAC-alpha serine/threonine-protein kinase (Homo sapiens, UniProt P31749); assay: Inhibition of AKT1 (unknown origin) using biotinylated-STK as substrate after 45 mins by HTRF assay
Sequence of RAC-alpha serine/threonine-protein kinase (P31749 whole entry): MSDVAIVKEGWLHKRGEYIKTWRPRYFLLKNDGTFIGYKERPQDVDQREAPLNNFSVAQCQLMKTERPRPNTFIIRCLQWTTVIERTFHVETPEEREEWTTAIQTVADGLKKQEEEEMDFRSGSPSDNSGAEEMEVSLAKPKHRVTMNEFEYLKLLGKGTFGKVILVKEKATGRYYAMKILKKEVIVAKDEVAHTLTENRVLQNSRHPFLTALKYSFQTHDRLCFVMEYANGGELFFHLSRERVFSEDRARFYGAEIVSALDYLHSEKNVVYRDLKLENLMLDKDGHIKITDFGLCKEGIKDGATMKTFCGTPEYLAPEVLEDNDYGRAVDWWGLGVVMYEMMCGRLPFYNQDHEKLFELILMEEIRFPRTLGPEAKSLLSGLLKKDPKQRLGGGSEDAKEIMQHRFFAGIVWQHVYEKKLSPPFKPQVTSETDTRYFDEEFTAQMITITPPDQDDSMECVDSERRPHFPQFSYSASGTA

[3] = test system: JVM-2; assay: Antiproliferative activity against human JVM2 cells after 72 hrs by CellTiter Glo assay; assay type: functional, cell-based; settings: JVM-2, 72 h
[4] = test system: Maver1; assay: Antiproliferative activity against human Maver1 cells after 72 hrs by CellTiter Glo assay; assay type: functional, cell-based; settings: Maver1, 72 h
[5] = Antiproliferative activity against human SP49 cells after 72 hrs by CellTiter Glo assay; assay type: functional, cell-based
[6] = test system: Z-138; assay: Antiproliferative activity against human Z138 cells after 72 hrs by CellTiter Glo assay; assay type: functional, cell-based; settings: Z-138, 72 h
[7] = Antiproliferative activity against human Mino cells after 72 hrs by CellTiter Glo assay; assay type: functional, cell-based
[8] = test system: JeKo-1; assay: Antiproliferative activity against human JeKo1 cells after 72 hrs by CellTiter Glo assay; assay type: functional, cell-based; settings: JeKo-1, 72 h
[9] = test system: JeKo-1; assay: Induction of apoptosis in human JeKo1 cells assessed as viable cells at 0.5 uM after 48 hrs by Annexin V-FITC/propidium iodide double staining based flow cytometry (reference value: 91.1%); assay type: functional; settings: JeKo-1, 48 h, read-out: Activity
[10] = test system: JeKo-1; assay: Induction of apoptosis in human JeKo1 cells assessed as early apoptotic cells at 0.5 uM after 48 hrs by Annexin V-FITC/propidium iodide double staining based flow cytometry (reference value: 6.18%); assay type: functional
[11] = test system: JeKo-1; assay: Induction of apoptosis in human JeKo1 cells assessed as late apoptotic cells at 0.5 uM after 48 hrs by Annexin V-FITC/propidium iodide double staining based flow cytometry (reference value: 1.9%); assay type: functional
[12] = test system: JeKo-1; assay: Induction of apoptosis in human JeKo1 cells assessed as necrotic cells at 0.5 uM after 48 hrs by Annexin V-FITC/propidium iodide double staining based flow cytometry (reference value: 0.81%); assay type: functional
[13] = test system: JeKo-1; assay: Induction of apoptosis in human JeKo1 cells assessed as viable cells at 1 uM after 48 hrs by Annexin V-FITC/propidium iodide double staining based flow cytometry (reference value: 91.1%); assay type: functional; settings: JeKo-1, 48 h, read-out: Activity
[14] = test system: JeKo-1; assay: Induction of apoptosis in human JeKo1 cells assessed as early apoptotic cells at 1 uM after 48 hrs by Annexin V-FITC/propidium iodide double staining based flow cytometry (reference value: 6.18%); assay type: functional
[15] = test system: JeKo-1; assay: Induction of apoptosis in human JeKo1 cells assessed as late apoptotic cells at 1 uM after 48 hrs by Annexin V-FITC/propidium iodide double staining based flow cytometry (reference value: 1.9%); assay type: functional
[16] = test system: JeKo-1; assay: Induction of apoptosis in human JeKo1 cells assessed as necrotic cells at 1 uM after 48 hrs by Annexin V-FITC/propidium iodide double staining based flow cytometry (reference value: 0.81%); assay type: functional
[17] = test system: JeKo-1; assay: Induction of apoptosis in human JeKo1 cells assessed as viable cells at 5 uM after 48 hrs by Annexin V-FITC/propidium iodide double staining based flow cytometry (reference value: 91.1%); assay type: functional; settings: JeKo-1, 48 h, read-out: Activity
[18] = test system: JeKo-1; assay: Induction of apoptosis in human JeKo1 cells assessed as early apoptotic cells at 5 uM after 48 hrs by Annexin V-FITC/propidium iodide double staining based flow cytometry (reference value: 6.18%); assay type: functional
[19] = test system: JeKo-1; assay: Induction of apoptosis in human JeKo1 cells assessed as late apoptotic cells at 5 uM after 48 hrs by Annexin V-FITC/propidium iodide double staining based flow cytometry (reference value: 1.9%); assay type: functional
[20] = test system: JeKo-1; assay: Induction of apoptosis in human JeKo1 cells assessed as necrotic cells at 5 uM after 48 hrs by Annexin V-FITC/propidium iodide double staining based flow cytometry (reference value: 0.81%); assay type: functional
[21] = test system: JeKo-1; assay: Induction of apoptosis in human JeKo1 cells assessed as viable cells at 1 uM after 24 hrs by Annexin V-FITC/propidium iodide double staining based flow cytometry (reference value: 91.9%); assay type: functional; settings: JeKo-1, 24 h, read-out: Activity
[22] = test system: JeKo-1; assay: Induction of apoptosis in human JeKo1 cells assessed as early apoptotic cells at 1 uM after 24 hrs by Annexin V-FITC/propidium iodide double staining based flow cytometry (reference value: 5.42%); assay type: functional
[23] = test system: JeKo-1; assay: Induction of apoptosis in human JeKo1 cells assessed as late apoptotic cells at 1 uM after 24 hrs by Annexin V-FITC/propidium iodide double staining based flow cytometry (reference value: 2.06%); assay type: functional
[24] = test system: JeKo-1; assay: Induction of apoptosis in human JeKo1 cells assessed as necrotic cells at 1 uM after 24 hrs by Annexin V-FITC/propidium iodide double staining based flow cytometry (reference value: 0.62%); assay type: functional
[25] = test system: JeKo-1; assay: Induction of apoptosis in human JeKo1 cells assessed as viable cells at 1 uM after 48 hrs by Annexin V-FITC/propidium iodide double staining based flow cytometry (reference value: 91.9%); assay type: functional; settings: JeKo-1, 48 h, read-out: Activity
[26] = test system: JeKo-1; assay: Induction of apoptosis in human JeKo1 cells assessed as early apoptotic cells at 1 uM after 48 hrs by Annexin V-FITC/propidium iodide double staining based flow cytometry (reference value: 5.42%); assay type: functional
[27] = test system: JeKo-1; assay: Induction of apoptosis in human JeKo1 cells assessed as late apoptotic cells at 1 uM after 48 hrs by Annexin V-FITC/propidium iodide double staining based flow cytometry (reference value: 2.06%); assay type: functional
[28] = test system: JeKo-1; assay: Induction of apoptosis in human JeKo1 cells assessed as necrotic cells at 1 uM after 48 hrs by Annexin V-FITC/propidium iodide double staining based flow cytometry (reference value: 0.62%); assay type: functional
[29] = test system: JeKo-1; assay: Induction of apoptosis in human JeKo1 cells assessed as early apoptotic cells at 1 uM after 72 hrs by Annexin V-FITC/propidium iodide double staining based flow cytometry (reference value: 5.42%); assay type: functional
[30] = test system: JeKo-1; assay: Induction of apoptosis in human JeKo1 cells assessed as late apoptotic cells at 1 uM after 72 hrs by Annexin V-FITC/propidium iodide double staining based flow cytometry (reference value: 2.06%); assay type: functional
[31] = test system: JeKo-1; assay: Induction of apoptosis in human JeKo1 cells assessed as necrotic cells at 1 uM after 72 hrs by Annexin V-FITC/propidium iodide double staining based flow cytometry (reference value: 0.62%); assay type: functional
[32] = test system: JeKo-1; assay: Cell cycle arrest in human JeKo1 cells assessed as accumulation at G0/G1 phase at 0.5 uM after 24 hrs by propidium iodide staining based flow cytometry (reference value: 44.8%); assay type: functional
[33] = test system: JeKo-1; assay: Cell cycle arrest in human JeKo1 cells assessed as accumulation at S phase at 0.5 uM after 24 hrs by propidium iodide staining based flow cytometry (reference value: 36.8%); assay type: functional
[34] = test system: JeKo-1; assay: Cell cycle arrest in human JeKo1 cells assessed as accumulation at G2/M phase at 0.5 uM after 24 hrs by propidium iodide staining based flow cytometry (reference value: 18.4%); assay type: functional
[35] = test system: JeKo-1; assay: Cell cycle arrest in human JeKo1 cells assessed as accumulation at G0/G1 phase at 1 uM after 24 hrs by propidium iodide staining based flow cytometry (reference value: 44.8%); assay type: functional
[36] = test system: JeKo-1; assay: Cell cycle arrest in human JeKo1 cells assessed as accumulation at S phase at 1 uM after 24 hrs by propidium iodide staining based flow cytometry (reference value: 36.8%); assay type: functional
[37] = test system: JeKo-1; assay: Cell cycle arrest in human JeKo1 cells assessed as accumulation at G2/M phase at 1 uM after 24 hrs by propidium iodide staining based flow cytometry (reference value: 18.4%); assay type: functional

O=C(N1CCN(c2ncnc3[nH]cc(Cl)c23)CC1)C1(c2ccc(Br)cc2)CCNCC1
viability at 1 µM [1]: 35.6% | pIC50 [2]: 8.74 | pIC50 [3]: 6.15 | pIC50 [4]: 6.52 | pIC50 [5]: 5.82 | pIC50 [6]: 6.70 | pIC50 [7]: 6.15 | pIC50 [8]: 6.52 | viability at 0.5 µM [9]: 75.6% | Activity [10]: 15.4% | Activity [11]: 8.31% | Activity [12]: 0.7% | viability at 1 µM [13]: 49.1% | Activity [14]: 34% | Activity [15]: 16.6% | Activity [16]: 0.21% | viability at 5 µM [17]: 6.4% | Activity [18]: 70.1% | Activity [19]: 23% | Activity [20]: 0.43% | viability at 1 µM [21]: 69.7% | Activity [22]: 9.81% | Activity [23]: 20.4% | Activity [24]: 0.091% | viability at 1 µM [25]: 49.1% | Activity [26]: 34% | Activity [27]: 16.6% | Activity [28]: 0.21% | Activity [29]: 53.5% | Activity [30]: 10.7% | Activity [31]: 0.26% | Activity [32]: 46.1% | Activity [33]: 21.2% | Activity [34]: 32.7% | Activity [35]: 8.8% | Activity [36]: 18.8% | Activity [37]: 72.4%

O=C(N1CCN(c2ncnc3[nH]cc(Cl)c23)CC1)C1(c2ccc(Cl)cc2)CCNCC1
pIC50 [2]: 8.72

O=C(N1CCN(c2ncnc3[nH]ccc23)CC1)C1(c2ccc(Cl)c(Cl)c2)CCNCC1
pIC50 [2]: < 7.40

O=C(N1CCN(c2ncnc3[nH]cc(Br)c23)CC1)C1(c2ccc(Cl)cc2)CCNCC1
pIC50 [2]: 8.82 | pIC50 [3]: 5.64 | pIC50 [4]: 5.74 | pIC50 [5]: 5.33 | pIC50 [6]: 5.77 | pIC50 [7]: 5.46 | pIC50 [8]: 5.92

O=C(N1CCN(c2ncnc3[nH]cc(Br)c23)CC1)C1(c2ccc(Cl)c(Cl)c2)CCNCC1
pIC50 [2]: 8.37

CC(C)(C)c1ccc(C2(C(=O)N3CCN(c4ncnc5[nH]ccc45)CC3)CCNCC2)cc1
pIC50 [2]: < 7.40

O=C(N1CCN(c2ncnc3[nH]ccc23)CC1)C1(c2ccc(Br)cc2)CCNCC1
pIC50 [2]: 7.57

O=C(N1CCN(c2ncnc3[nH]cc(Br)c23)CC1)C1(c2cccc(Br)c2)CCNCC1
pIC50 [2]: 8.12

O=C(N1CCN(c2ncnc3[nH]ccc23)CC1)C1(c2ccc(Cl)cc2)CCNCC1
pIC50 [2]: 7.58

O=C(N1CCN(c2ncnc3[nH]cc(Cl)c23)CC1)C1(c2ccc(Cl)c(Cl)c2)CCNCC1
pIC50 [2]: 8.54

O=C(Cc1ccc(Cl)cc1)N1CCN(c2ncnc3[nH]cc(Br)c23)CC1
pIC50 [2]: 7.74 | pIC50 [3]: 5.00 | pIC50 [4]: 4.73 | pIC50 [5]: 5.11 | pIC50 [6]: 5.17 | pIC50 [7]: 4.74 | pIC50 [8]: 5.06

COc1ccc(C2(C(=O)N3CCN(c4ncnc5[nH]cc(Br)c45)CC3)CCNCC2)cc1
pIC50 [2]: 7.85

COc1ccc(C2(C(=O)N3CCN(c4ncnc5[nH]ccc45)CC3)CCNCC2)cc1
pIC50 [2]: 7.45

O=C(N1CCN(c2ncnc3[nH]cc(Cl)c23)CC1)C1(c2cccc(Br)c2)CCNCC1
pIC50 [2]: 8.25

O=C(N1CCN(c2ncnc3[nH]cc(Br)c23)CC1)C1(c2ccccc2)CCNCC1
pIC50 [2]: 7.69

CCn1c(-c2nonc2N)nc2c(C#CC(C)(C)O)ncc(OC[C@H]3CCCNC3)c21 [GSK-690693]
pIC50 [3]: 5.80 | pIC50 [4]: 5.29 | pIC50 [5]: 5.32 | pIC50 [6]: 5.51 | pIC50 [7]: 4.68 | pIC50 [8]: 5.52
